Here are results for 8 compounds from ChEMBL document CHEMBL4312037, “Fragment hopping-based discovery of novel sulfinylacetamide-diarylpyrimidines (DAPYs) as HIV-1 nonnucleoside reverse transcriptase inhibitors” (Eur J Med Chem, 2020).

A word on the CC50: it is the concentration that lowers cell viability or growth by half. Usually EC50 stands for the concentration that produces a half-maximal response.

Where only a bound is given, the exact number is not on record here.

Test system in one data set: not listed separately
Kind of data set: Cytotoxicity against human MT4 cells assessed as reduction in cell viability incubated for 5 days by MTT assay. The format is cell-based.
Settings: not given
(Tetrazolium dyes change colour on reduction, which living cells bring about.)
In the case of `COc1cc2nc(SCC(=O)Nc3ccc(C)cc3)nc(Nc3c(Cl)cc(/C=C/C#N)cc3Cl)c2cc1OC`, the CC50 at 120 h is 2540 nM.

For the compound `COc1cc2nc(Nc3ccc(C#N)cc3)nc(Nc3c(C)cc(/C=C/C#N)cc3F)c2cc1OC`, the CC50 at 120 h is greater than 52000 nM.

With `COc1cc2nc([S+]([O-])CC(=O)Nc3ccc([N+](=O)[O-])cc3)nc(Nc3c(Cl)cc(/C=C/C#N)cc3Cl)c2cc1OC` (stereo not given), the CC50 at 120 h turned out to be 92800 nM.

Consider `COc1cc2nc([S+]([O-])CC(=O)Nc3ccc(S(N)(=O)=O)cc3)nc(Nc3c(Cl)cc(/C=C/C#N)cc3Cl)c2cc1OC` (stereo not given), for which the CC50 at 120 h was greater than 189000 nM.

`COc1cc2nc([S+]([O-])CC(=O)Nc3ccc(C#N)cc3)nc(Nc3c(Cl)cc(/C=C/C#N)cc3Cl)c2cc1OC` (stereo not given): the 50% cytotoxic concentration (CC50) at 120 h was no less than 188000 nM.

Regarding `COc1cc2nc([S+]([O-])CC(=O)Nc3ccccc3[N+](=O)[O-])nc(Nc3c(Cl)cc(/C=C/C#N)cc3Cl)c2cc1OC` (stereo not given), the CC50 at 120 h was greater than 199000 nM.

On to `COc1cc2nc(SCC(=O)Nc3ccc(Cl)cc3)nc(Nc3c(Cl)cc(/C=C/C#N)cc3Cl)c2cc1OC`, for which the CC50 at 120 h is 29500 nM.

Take `COc1ccc(NC(=O)CSc2nc(Nc3c(C)cc(/C=C/C#N)cc3C)c3cc(OC)c(OC)cc3n2)cc1`: the CC50 at 120 h was greater than 225000 nM.

Test system in a further data set: not listed separately
Kind of data set: in vitro. The conditions noted are these: human, MT4 cells; MT4 cells infected with HIV1 3B K103N mutant.
Description: Selectivity index, ratio of CC50 for cytotoxicity against human MT4 cells to EC50 for antiviral activity against HIV1 3B harbouring NNRTI K103N mutant infected in human MT4 cells
Regarding `COc1cc2nc(Nc3ccc(C#N)cc3)nc(Nc3c(C)cc(/C=C/C#N)cc3F)c2cc1OC`, the selectivity ratio is greater than 4720.

As to `COc1cc2nc([S+]([O-])CC(=O)Nc3ccc([N+](=O)[O-])cc3)nc(Nc3c(Cl)cc(/C=C/C#N)cc3Cl)c2cc1OC` (stereo not given), the selectivity ratio came to 2990.

With `COc1cc2nc([S+]([O-])CC(=O)Nc3ccc(S(N)(=O)=O)cc3)nc(Nc3c(Cl)cc(/C=C/C#N)cc3Cl)c2cc1OC` (stereo not given), the selectivity ratio is greater than 21.

Take `COc1cc2nc([S+]([O-])CC(=O)Nc3ccc(C#N)cc3)nc(Nc3c(Cl)cc(/C=C/C#N)cc3Cl)c2cc1OC` (stereo not given): the selectivity ratio is no less than 4420.

With `COc1cc2nc(SCC(=O)Nc3ccc(Cl)cc3)nc(Nc3c(Cl)cc(/C=C/C#N)cc3Cl)c2cc1OC`, the selectivity ratio turned out to be 44.

`COc1ccc(NC(=O)CSc2nc(Nc3c(C)cc(/C=C/C#N)cc3C)c3cc(OC)c(OC)cc3n2)cc1`: the selectivity ratio was greater than 302.

Test system in a further data set: not listed separately
Kind of data set: in vitro. The conditions noted are these: human, MT4 cells; MT4 cells infected with HIV1 3B.
Description: Selectivity index, ratio of CC50 for cytotoxicity against human MT4 cells to EC50 for antiviral activity against HIV1 3B infected in human MT4 cells
With `COc1cc2nc(SCC(=O)Nc3ccc(C)cc3)nc(Nc3c(Cl)cc(/C=C/C#N)cc3Cl)c2cc1OC`, the selectivity ratio was less than 1.

On to `COc1cc2nc(Nc3ccc(C#N)cc3)nc(Nc3c(C)cc(/C=C/C#N)cc3F)c2cc1OC`, for which the selectivity ratio was greater than 4250.

Consider `COc1cc2nc([S+]([O-])CC(=O)Nc3ccc([N+](=O)[O-])cc3)nc(Nc3c(Cl)cc(/C=C/C#N)cc3Cl)c2cc1OC` (stereo not given), for which the selectivity ratio stood at 2410.

With `COc1cc2nc([S+]([O-])CC(=O)Nc3ccc(S(N)(=O)=O)cc3)nc(Nc3c(Cl)cc(/C=C/C#N)cc3Cl)c2cc1OC` (stereo not given), the selectivity ratio was greater than 10.

Take `COc1cc2nc([S+]([O-])CC(=O)Nc3ccc(C#N)cc3)nc(Nc3c(Cl)cc(/C=C/C#N)cc3Cl)c2cc1OC` (stereo not given): the selectivity ratio is no less than 3240.

`COc1cc2nc(SCC(=O)Nc3ccc(Cl)cc3)nc(Nc3c(Cl)cc(/C=C/C#N)cc3Cl)c2cc1OC`: the selectivity ratio was 24.

With `COc1ccc(NC(=O)CSc2nc(Nc3c(C)cc(/C=C/C#N)cc3C)c3cc(OC)c(OC)cc3n2)cc1`, the selectivity ratio was greater than 82.

The next data set concerns Human immunodeficiency virus 1. Kind of data set: Antiviral activity against HIV1 3B harbouring NNRTI K103N mutant infected in human MT4 cells assessed as virus-induced cytopathic effect incubated for 5 days by MTT assay. The format is functional, organism-based. The conditions noted are these: Human immunodeficiency virus 1, 3B, MT4, 120 h. (In general: Cytopathic effects are the visible damage that an infection or toxin causes in cultured cells.)
`COc1cc2nc(Nc3ccc(C#N)cc3)nc(Nc3c(C)cc(/C=C/C#N)cc3F)c2cc1OC`: the EC50 worked out at 11 nM.

For the compound `COc1cc2nc([S+]([O-])CC(=O)Nc3ccc([N+](=O)[O-])cc3)nc(Nc3c(Cl)cc(/C=C/C#N)cc3Cl)c2cc1OC` (stereo not given), the EC50 turned out to be 31 nM.

On to `COc1cc2nc([S+]([O-])CC(=O)Nc3ccc(S(N)(=O)=O)cc3)nc(Nc3c(Cl)cc(/C=C/C#N)cc3Cl)c2cc1OC` (stereo not given), for which the 50% effective concentration (EC50) came out at 9190 nM.

`COc1cc2nc([S+]([O-])CC(=O)Nc3ccc(C#N)cc3)nc(Nc3c(Cl)cc(/C=C/C#N)cc3Cl)c2cc1OC` (stereo not given): the EC50 is 42.6 nM.

`COc1cc2nc(SCC(=O)Nc3ccc(Cl)cc3)nc(Nc3c(Cl)cc(/C=C/C#N)cc3Cl)c2cc1OC`: the EC50 amounted to 677 nM.

Take `COc1ccc(NC(=O)CSc2nc(Nc3c(C)cc(/C=C/C#N)cc3C)c3cc(OC)c(OC)cc3n2)cc1`: the EC50 turned out to be 745 nM.

The test system of a further data set is Human immunodeficiency virus 1. Briefly: Antiviral activity against HIV1 3B infected in human MT4 cells assessed as virus-induced cytopathic effect incubated for 5 days by MTT assay. The format is functional, organism-based. As to conditions: Human immunodeficiency virus 1, 3B, MT4, 120 h.
`COc1cc2nc(SCC(=O)Nc3ccc(C)cc3)nc(Nc3c(Cl)cc(/C=C/C#N)cc3Cl)c2cc1OC`: the concentration for a half-maximal effect (EC50) was greater than 2530 nM.

On to `COc1cc2nc(Nc3ccc(C#N)cc3)nc(Nc3c(C)cc(/C=C/C#N)cc3F)c2cc1OC`, for which the half-maximal effective concentration (EC50) came out at 12.2 nM.

With `COc1cc2nc([S+]([O-])CC(=O)Nc3ccc([N+](=O)[O-])cc3)nc(Nc3c(Cl)cc(/C=C/C#N)cc3Cl)c2cc1OC` (stereo not given), the EC50 is 38.5 nM.

As for `COc1cc2nc([S+]([O-])CC(=O)Nc3ccc(S(N)(=O)=O)cc3)nc(Nc3c(Cl)cc(/C=C/C#N)cc3Cl)c2cc1OC` (stereo not given), the EC50 was found to be 19300 nM.

As to `COc1cc2nc([S+]([O-])CC(=O)Nc3ccc(C#N)cc3)nc(Nc3c(Cl)cc(/C=C/C#N)cc3Cl)c2cc1OC` (stereo not given), the EC50 worked out at 58.2 nM.

For the compound `COc1cc2nc([S+]([O-])CC(=O)Nc3ccccc3[N+](=O)[O-])nc(Nc3c(Cl)cc(/C=C/C#N)cc3Cl)c2cc1OC` (stereo not given), the EC50 was greater than 199000 nM.

In the case of `COc1cc2nc(SCC(=O)Nc3ccc(Cl)cc3)nc(Nc3c(Cl)cc(/C=C/C#N)cc3Cl)c2cc1OC`, the EC50 was found to be 1250 nM.

As to `COc1ccc(NC(=O)CSc2nc(Nc3c(C)cc(/C=C/C#N)cc3C)c3cc(OC)c(OC)cc3n2)cc1`, the EC50 was determined as 2750 nM.
